According to publication PMC5854701 (Scientific Reports, 2018):

Columns and labels:
Assay in all cases: microbe, parasite or virus in culture
[1] = test system: A/California/07/2009 (H1N1)
[2] = test system: A/Denmark/524/2009 (H1N1)
A/Texas/04/2009 (H1N1) = test system: A/Texas/04/2009 (H1N1)
[3] = test system: A/Washington/29/2009 (H1N1)
[4] = test system: B/Wisconsin/1/2010 (Yamagata); conditions: Influenza B virus
[5] = test system: B/Brisbane/60/2008 (Victoria); conditions: Influenza B virus
[6] = test system: A/Switzerland/9715293/2013 (H3N2)
[7] = test system: A/Denmark/528/2009 (H1N1)
[8] = test system: B/Memphis/20/1996 (Yamagata); conditions: Influenza B virus
[9] = test system: B/Utah/09/2014 (Yamagata); conditions: Influenza B virus
[10] = test system: B/Phuket/3073/2013 (Yamagata); conditions: Influenza B virus

SMILES	EC50 [1]	EC50 [2]	EC50 (A/Texas/04/2009 (H1N1))	EC50 [3]	EC50 [4]	EC50 [5]	EC50 [6]	EC50 [7]	EC50 [8]	EC50 [9]	EC50 [10]
O=c1[nH]c2ccccc2n1C1CCN(C(CCc2ccccc2)c2nnnn2-c2ccc3c(c2)OCCO3)CC1 (centres unmarked) [Compound 5, 1‐(1‐{1‐[1‐(2,3‐dihydro‐1,4‐benzodioxin‐6‐yl)‐1,2,3,4‐tetrazol‐5‐yl]‐3‐phenylpropyl}piperidin‐4‐ yl)‐3 H‐1,3‐benzodiazol‐2‐one]	4.5 ± 0.7 µM	1.8 ± 0.4 µM	3.5 ± 1.1 µM	1.6 ± 0.5 µM	0.9 ± 0.2 µM	1 ± 0.3 µM					
C[C@@H](c1ccccc1)n1nnnc1[C@H](c1ccsc1)N1CCC(n2c(=O)[nH]c3ccccc32)CC1 [Compound 12a, 1‐{1‐[(S)‐{1‐[(1 S)‐1‐phenylethyl]‐1 H‐1,2,3,4‐tetrazol‐5‐yl}(thiophen‐3‐yl)methyl]piperidin‐4‐yl}‐2,3‐dihydro‐1 H‐1,3‐benzodiazol‐2‐one]	1.3 ± 0.4 µM	0.8 ± 0.2 µM	1.1 ± 0.4 µM	0.9 ± 0.3 µM	0.8 ± 0.3 µM	0.6 ± 0.3 µM	1.4 ± 0.6 µM	0.9 ± 0.3 µM	2.7 ± 0.2 µM	1.5 ± 0.3 µM	1.2 ± 0.2 µM
